Measured values as given in PMC6963971, “Withanolides from Withania aristata as Antikinetoplastid Agents through Induction of Programmed Cell Death” (Pathogens, 2019).
Values joined by “and” are separate entries in the source; they are usually repeats but may differ in a detail not shown here. Identical values can stand only once. Like-named read-outs stand apart in the source and are kept apart here.

Legend:
[1] = Cytotoxicity assay (alamarBlue); format: cell-based, murine; conditions: mouse, J774A.1 macrophage cell line; J774A.1, 24 h; read-out: Murine Macrophages CC50
Procedure: (§1) To perform the experiments, promastigotes of L. amazonensis (MHOM/BR/77/LTB0016) and L. donovani (MHOM/IN/90/GE1F8R) and epimastigote T. cruzi (Y strain) were employed. Leishmania species were cultured in Schneider’s medium (Sigma-Aldrich, Madrid, Spain) at 26 °C supplemented with 10% fetal bovine serum (VWR, Biowest, Nuaillé, France) as well as in RPMI 1640 medium (Gibco, Thermo Fisher, Madrid, Spain). Epimastigotes of T. cruzi were cultured in Liver Infusion Tryptose (LIT) medium supplemented with 10% fetal bovine serum at 26 °C. For the cytotoxicity assays, murine macrophage cell line J774A.1 (ATCC TIB-67) was maintained at 37 °C in a 5% CO2 atmosphere in RPMI 1640 medium supplemented with 10% fetal bovine serum.
(§2) The cytotoxicity was evaluated using a macrophage cell line J774A.1 in RPMI medium. Macrophages were plated and at 10^5 macrophages/well and, subsequently, serial dilution of samples were added to the plates. After 24 h of incubation cell viability was determined by the alamarBlue® [28].

T. cruzi epimastigotes = test: Trypanocidal capacity assay (alamarBlue), epimastigotes; format: cell-based, Trypanosoma cruzi; conditions: for SI (CC50/IC50), T. cruzi: epimastigotes vs murine macrophages; for IC50: epimastigote stage, read-out: T. cruzi IC50 (µM ± SD)
Procedure: as §1
For the evaluation against the epimastigote stage of T. cruzi, assays were performed following the same procedure mentioned in Section 3.5.1., modifying the density to 2 × 10^5 parasite/well and using LIT medium.

[2] = tested on: intracellular amastigote stage of L. amazonensis; test: Amastigote activity assay (parasite rescue and transformation, alamarBlue); format: cell-based, Leishmania amazonensis; conditions: for IC50: intracellular amastigote stage, read-out: L. amazonensis IC50 (µM ± SD); for SI (CC50/IC50), L. amazonensis amastigote: amastigotes vs murine macrophages; for fold more potent than the reference drug against L. amazonensis amastigotes: intracellular amastigote, vs miltefosine
Procedure: (§3) Promastigote in logarithmic phase were used for plate preparation, and the in vitro antiprotozoal assay was performed in 96-well plates. The different fractions or compounds were serially diluted on the wells and 10^6 parasites/mL were finally added. The activity of the fraction was calculated by the alamarBlue® method. In addition, the active pure molecules were tested against the amastigote stage of L. amazonensis.
The amastigote activity was performed according to Jain et al.. After allowing the transformation of rescued amastigotes to promastigotes, the activity was evaluated by AlamarBlue method. After incubation, the fluorescence was measured in a Perkin Elmer EnSpire spectrofluorometer and fluorescence was measured at emission peak 585 nm.

T. cruzi = test: Measurement of ATP (Cell Titer-Glo); format: cell-based, Trypanosoma cruzi; conditions: IC90, 24 h
Procedure: (§4) To determine the ATP level of the parasites, the Cell Titer-Glo® Luminescent Cell Viability Assay (Promega, Madison, WI, USA) was used following the manufacturer’s instructions after incubation of the parasites with the calculated IC90 of the tested withanolides for 24 h.

L. amazonensis [3] = test: Chromatin condensation determination (Hoechst 33342/propidium iodide); format: cell-based, Leishmania amazonensis; conditions: IC90, 24 h
Procedure: The detection of condensed chromatin, was performed using the Vybrant™ Apoptosis Assay Kit #5, Hoechst 33342/Propidium Iodide (Invitrogen, Carlsbad, CA, USA). Parasites were incubated with the IC90 of the pure compounds for 24 h, then collected and centrifuged. The cell pellet was resuspended in RPMI, added to a black plate and incubated with the Hoechst 33342 and the propidium iodide. Then the plate was protected from light for 20 min at 4 °C. The EVOS FL Cell Imaging System (Invitrogen, ThermoFisher, Carlsbad, CA, USA) was used to observe the cells, using the DAPI (Hoechst) and RFP (PI) Light Cubes.

[4] = tested on: L. donovani promastigotes; test: Leishmanicidal activity assay (alamarBlue), promastigotes; format: cell-based, Leishmania donovani; conditions: for IC50: promastigote stage; for SI (CC50/IC50), L. donovani: promastigotes vs murine macrophages
Procedure: as §1, §3

[5] = tested on: L. amazonensis promastigotes; test: as above; format: cell-based, Leishmania amazonensis; conditions: for IC50 / fold more potent than the reference drug against L. amazonensis: promastigote stage; for IC50: read-out: L. amazonensis IC50 (µM ± SD); for fold more potent than the reference drug against L. amazonensis: vs miltefosine; for SI (CC50/IC50), L. amazonensis: promastigotes vs murine macrophages
Procedure: as §1, §3

L. amazonensis [6] = test: Measurement of ATP (Cell Titer-Glo); format: cell-based, Leishmania amazonensis; conditions: IC90, 24 h
Procedure: as §4

[7] = tested on: murine macrophage cell line J774A.1; test: Cytotoxicity assay (alamarBlue); format: cell-based
Procedure: as §1, §2

O=C(Cn1ccnc1[N+](=O)[O-])NCc1ccccc1 [Benznidazole]
CC50 at 24 h [1]: 104 µg/mL and 400 µM
SI (CC50/IC50), T. cruzi (T. cruzi epimastigotes): 57.54

CC1=C(CO)C(=O)O[C@@H]([C@@H](C)[C@H]2CC[C@H]3[C@@H]4C[C@H]5O[C@]56[C@@H](O)C=CC(=O)[C@]6(C)[C@H]4CC[C@]23C)C1 [Compound 1, withaferin A]
IC50 ([2]; Leishmania amazonensis): 0.055 ± 0.009 µM
SI (CC50/IC50), L. amazonensis amastigote [2]: 216.73
fold more potent than the reference drug against L. amazonensis amastigotes [2]: 56 fold
ATP level (T. cruzi): slight decrease
CC50 at 24 h [1]: 11900 ± 1080 nM
propidium iodide staining (L. amazonensis [3]): staining in red was observed
IC50 ([4]; Leishmania donovani, read-out: L. donovani IC50 (µM ± SD)): 13.2 ± 1.16 µM
SI (CC50/IC50), L. donovani [4]: 0.91
IC50 ([5]; Leishmania amazonensis): 0.83 ± 0.07 µM
fold more potent than the reference drug against L. amazonensis [5]: 7.8 fold
SI (CC50/IC50), L. amazonensis [5]: 14.36
total ATP level (L. amazonensis [6]): strong decrease
IC50 (T. cruzi epimastigotes; Trypanosoma cruzi): 1.02 ± 0.1 µM
fold more potent than benznidazole against T. cruzi epimastigotes (T. cruzi epimastigotes): 6.8 fold
SI (CC50/IC50), T. cruzi (T. cruzi epimastigotes): 11.69

CCCCCCCCCCCCCCCCOP(=O)([O-])OCC[N+](C)(C)C [Miltefosine, reference compound]
IC50 ([2]; Leishmania amazonensis): 3.12 ± 0.12 µM
SI (CC50/IC50), L. amazonensis amastigote [2]: 23.13
CC50 at 24 h [1]: 29.4 µg/mL and 72.2 µM
IC50 ([4]; Leishmania donovani, read-out: L. donovani IC50): 1.35 µg/mL
SI (CC50/IC50), L. donovani [4]: 21.81
SI (CC50/IC50), L. amazonensis [5]: 11.14

witharistatin [Compound 3]
SI (CC50/IC50), L. amazonensis amastigote [2]: 58.66
IC50 [2]: 0.209 ± 0.028 µM
fold more potent than the reference drug against L. amazonensis amastigotes [2]: 14.9 fold
CC50 [7]: 12300 ± 1160 nM
IC50 ([4]; read-out: L. donovani IC50 (µM ± SD)): 20.9 ± 1.33 µM
fold more potent than the reference drug against L. amazonensis [5]: 2.3 fold
IC50 [5]: 2.82 ± 0.07 µM
IC50 (T. cruzi epimastigotes): 2.41 ± 0.11 µM
fold more potent than benznidazole against T. cruzi epimastigotes (T. cruzi epimastigotes): 2.9 fold
